Values of other authors, collected in patent publication US12478584B1, “Atomoxetine hydrochloride oral suspension and use thereof” (OWP Pharmaceuticals, Inc., priority 2025, dated 2025).

Details: standard temperature and pressure

CNCC[C@@H](Oc1ccccc1C)c1ccccc1.Cl [Atomoxetine, (3R)—N-methyl-3-(2-methylphenoxy)-3-phenylpropan-1-amine]
water solubility: 27.8 mg/mL
